{"source": "patent US10688093B2", "about": "“Methods, compositions, and uses of novel Fyn kinase inhibitors” (priority 2015, dated 2020)"}
{"molecular_target": "full-length recombinant human FYN A (Homo sapiens (Human), UniProt P06241)", "sequence (P06241 whole entry)": "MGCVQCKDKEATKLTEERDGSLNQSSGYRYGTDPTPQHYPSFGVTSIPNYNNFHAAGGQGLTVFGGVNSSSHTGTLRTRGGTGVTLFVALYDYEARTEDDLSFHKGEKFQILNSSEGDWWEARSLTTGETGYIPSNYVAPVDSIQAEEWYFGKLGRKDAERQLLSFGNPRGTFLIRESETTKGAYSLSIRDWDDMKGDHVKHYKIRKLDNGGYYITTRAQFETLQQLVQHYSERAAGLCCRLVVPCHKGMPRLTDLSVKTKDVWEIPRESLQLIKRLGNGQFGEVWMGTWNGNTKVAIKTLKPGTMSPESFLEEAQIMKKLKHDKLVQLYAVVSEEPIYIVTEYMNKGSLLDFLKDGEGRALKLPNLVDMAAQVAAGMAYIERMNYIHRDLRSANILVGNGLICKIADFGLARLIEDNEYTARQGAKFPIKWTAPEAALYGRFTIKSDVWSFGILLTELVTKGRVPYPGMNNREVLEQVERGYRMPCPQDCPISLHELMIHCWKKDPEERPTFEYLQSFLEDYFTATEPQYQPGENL", "assay": "ADP-Glo Kinase Assay of FYN kinase inhibition", "type": "biochemical", "conditions": "primary screen, initial compounds", "in_short": "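ADP-Glo read-out of peptide phosphorylation after 90 min RT with 12.5 pmol ATP and 100 pg 12-mer substrate. Enzyme was N-GST full-length human FYN A from insect cells, 3 pg, pre-incubated 30 min with compound, 10 points from 10 μM top, 3-fold steps; IC50 from curve.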", "units": {"IC50": "nM"}}
{"molecule": "COc1cc(-c2cnc3ccc(-c4cccc(O)c4)nn23)ccc1O", "note": "[Compound 399, 4-[6-(3-hydroxyphenyl)imidazo[1,2-b]pyridazin-3-yl]-2-methoxy-phenol]", "IC50": 295}
{"molecule": "COc1ccc(-c2ccc3ncc(-c4ccncc4)n3n2)cc1OC", "note": "[Compound 400, 6-(3,4-dimethoxy-phenyl)-3-(4-pyridyl)imidazo [1,2-b]pyridazine]", "IC50": 282}
{"molecule": "Fc1ccc(-c2ccc3ncc(-c4cccnc4)n3n2)cc1", "note": "[Compound 401, 6-(4-fluorophenyl)-3-(3-pyridyl)imidazo [1,2-b]pyridazine]", "IC50": 2780}
{"molecule": "OCc1cccc(-c2ccc3ncc(-c4cccc(Cl)c4)n3n2)c1", "note": "[Compound 402, [3-[3-(3-chlorophenyl)imidazo[1,2-b]pyridazin-6-yl]phenyl] methanol]", "IC50": 9820}
{"molecule": "Oc1cccc(-c2cnc3ccc(-c4ccc(F)cc4)nn23)c1", "note": "[Compound 403, 3-[6-(4-fluorophenyl)imidazo[1,2-b]pyridazin-3-yl]phenol]", "IC50": 11900}
{"molecule": "c1ccc(-c2cnc3ccc(-c4cccs4)nn23)cc1", "note": "[Compound 404, 3-phenyl-6-(2-thienyl)imidazo [1,2-b]pyridazine]", "IC50": 1970}
{"molecule": "COc1ccc(-c2cnc3ccc(-c4cccnc4)nn23)cc1OC", "note": "[Compound 405, 3-(3,4-dimethoxy-phenyl)-6-(3-pyridyl)imidazo [1,2-b]pyridazine]", "IC50": 549}
{"molecule": "CC(=O)Nc1cccc(-c2ccc3ncc(-c4cccc(O)c4)n3n2)c1", "note": "[Compound 406, N-[3-[3-(3-hydroxyphenyl)imidazo[1,2-b]pyridazin-6-yl]phenyl] acetamide]", "IC50": 1650}
{"molecule": "COc1cc(-c2cnc3ccc(-c4ccc(CO)cc4)nn23)ccc1O", "note": "[Compound 407, 4-[6-[4-(hydroxymethyl)phenyl]imidazo [1,2-b]pyridazin-3-yl]-2-methoxy-phenol]", "IC50": 125}
{"molecule": "CNC(=O)c1cccc(-c2ccc3ncc(-c4ccc(OC)c(OC)c4)n3n2)c1", "note": "[Compound 408, 3-[3-(3,4-dimethoxyphenyl)imidazo[1,2-b]pyridazin-6-yl]-N-methyl-benzamide]", "IC50": 3490}
{"molecule": "CC(=O)Nc1cccc(-c2ccc3ncc(-c4ccncc4)n3n2)c1", "note": "[Compound 409, N-[3-[3-(4-pyridyl)imidazo [1,2-b]pyridazin-6-yl]phenyl] acetamide]", "IC50": 598}
{"molecule": "c1cncc(-c2cnc3ccc(-c4ccoc4)nn23)c1", "note": "[Compound 410, 6-(3-furyl)-3-(3-pyridyl)imidazo [1,2-b]pyridazine]", "IC50": 2350}
{"molecule": "COc1ccc(-c2ccc3ncc(-c4cccc(NC(C)=O)c4)n3n2)cc1OC", "note": "[Compound 411, N-[3-[6-(3,4-dimethoxyphenyl)imidazo[1,2-p]pyridazin-3-yl]phenyl] acetamide]", "IC50": 259}
{"molecule": "Oc1cccc(-c2cnc3ccc(-c4ccoc4)nn23)c1", "note": "[Compound 412, 3-[6-(3-furyl)imidazo[1,2-b]pyridazin-3-yl]phenol]", "IC50": 1060}
{"molecule": "CC(=O)c1cccc(-c2cnc3ccc(-c4ccncc4)nn23)c1", "note": "[Compound 413, 1-[3-[6-(4-pyridyl)imidazo [1,2-b]pyridazin-3-yl]phenyl] ethanone]", "IC50": 371}
{"molecule": "Cc1cccc(Cc2ccc3ncc(-c4ccncc4)n3n2)c1", "note": "[Compound 414, 6-(m-tolylmethyl)-3-(4-pyridyl)imidazo [1,2-b]pyridazine]", "IC50": 977}
{"molecule": "Fc1ccc(-c2ccc3ncc(-c4ccc5c(c4)OCO5)n3n2)cc1", "note": "[Compound 415, 3-(1,3-benzodioxol-5-yl)-6-(4-fluorophenyl) imidazo[1,2-b]pyridazine]", "IC50": 7600}
{"molecule": "COc1ccc(-c2ccc3ncc(-c4ccc(OC)c(OC)c4)n3n2)cc1OC", "note": "[Compound 416, 3,6-bis(3,4-dimethoxyphenyl) imidazo[1,2-b]pyridazine]", "IC50": 538}
{"molecule": "COc1ccccc1-c1ccc2ncc(-c3cccc(O)c3)n2n1", "note": "[Compound 417, 3-[6-(2-methoxyphenyl)imidazo[1,2-b]pyridazin-3-yl]phenol]", "IC50": 2740}
{"molecule": "OCc1ccc(-c2cnc3ccc(-c4ccccc4)nn23)cc1", "note": "[Compound 418, [4-(6-phenylimidazo [1,2-b]pyridazin-3-yl)phenyl] methanol]", "IC50": 1460}
{"molecule": "CC(=O)Nc1ccc(-c2ccc3ncc(-c4ccc(CO)cc4)n3n2)cc1", "note": "[Compound 419, N-[4-[3-[4-(hydroxymethyl)phenyl]imidazo [1,2-b]pyridazin-6-yl]phenyl] acetamide]", "IC50": 21500}
{"molecule": "COc1cc(-c2cnc3ccc(-c4cccc(CO)c4)nn23)ccc1O", "note": "[Compound 420, 4-[6-[3-(hydroxymethyl)phenyl]imidazo [1,2-b]pyridazin-3-yl]-2-methoxy-phenol]", "IC50": 102}
{"molecule": "CC(=O)c1cccc(-c2cnc3ccc(-c4cccc(CO)c4)nn23)c1", "note": "[Compound 421, 1-[3-[6-[3-(hydroxymethyl)phenyl]imidazo [1,2-b]pyridazin-3-yl]phenyl] ethanone]", "IC50": 179}
{"molecule": "COc1cc(-c2ccc3ncc(-c4cccs4)n3n2)ccc1O", "note": "[Compound 423, 2-methoxy-4-[3-(2-thienyl)imidazo[1,2-b]pyridazin-6-yl]phenol]", "IC50": 694}
{"molecule": "O=C(NCCO)c1cccc(-c2ccc3ncc(-c4ccccc4)n3n2)c1", "note": "[Compound 424, N-(2-hydroxyethyl)-3-(3-phenyl-imidazo[1,2-b]pyridazin-6-yl)benzamide]", "IC50": 13900}
{"molecule": "c1ccc(Cc2ccc3ncc(-c4ccncc4)n3n2)cc1", "note": "[Compound 425, 6-benzyl-3-(4-pyridyl)imidazo [1,2-b]pyridazine]", "IC50": 624}
{"molecule": "NC(=O)c1ccc(-c2ccc3ncc(-c4cccnc4)n3n2)cc1", "note": "[Compound 426, 4-[3-(3-pyridyl)imidazo [1,2-b]pyridazin-6-yl]benzamide]", "IC50": 11200}
{"molecule": "CC(=O)c1cccc(-c2cnc3ccc(-c4cccnc4)nn23)c1", "note": "[Compound 427, 1-[3-[6-(3-pyridyl)imidazo [1,2-b]pyridazin-3-yl]phenyl] ethanone]", "IC50": 1230}
{"molecule": "COc1cccc(-c2ccc3ncc(-c4cccc(C(C)=O)c4)n3n2)c1", "note": "[Compound 428, 1-[3-[6-(3-methoxyphenyl)imidazo[1,2-b]pyridazin-3-yl]phenyl] ethanone]", "IC50": 1780}
{"molecule": "Fc1ccc(Cc2ccc3ncc(-c4ccncc4)n3n2)cc1", "note": "[Compound 429, 6-[(4-fluorophenyl)methyl]-3-(4-pyridyl)imidazo [1,2-b]pyridazine]", "IC50": 1450}
{"molecule": "Nc1cccc(-c2ccc3ncc(-c4ccc5c(c4)OCO5)n3n2)c1", "note": "[Compound 430, 3-[3-(1,3-benzodioxol-5-yl)imidazo[1,2-b]pyridazin-6-yl]aniline]", "IC50": 843}
{"molecule": "c1cc(-c2ccc3ncc(-c4ccc5c(c4)OCO5)n3n2)co1", "note": "[Compound 431, 3-(1,3-benzodioxol-5-yl)-6-(3-furyl) imidazo[1,2-b]pyridazine]", "IC50": 1600}
{"molecule": "COc1ccc(-c2ccc3ncc(-c4ccc(CO)cc4)n3n2)cc1OC", "note": "[Compound 432, [4-[6-(3,4-dimethoxyphenyl)imidazo[1,2-b]pyridazin-3-yl]phenyl] methanol]", "IC50": 3940}
{"molecule": "CN(C)CCNC(=O)c1cccc(-c2ccc3ncc(-c4ccc5c(c4)OCO5)n3n2)c1", "note": "[Compound 433, 3-[3-(1,3-benzodioxol-5-yl)imidazo[1,2-b]pyridazin-6-yl]-N-(2-dimethylamino-ethyl)benzamide]", "IC50": 393}
{"molecule": "CC(=O)Nc1cccc(-c2cnc3ccc(-c4ccc(F)c(Cl)c4)nn23)c1", "note": "[Compound 434, N-[3-[6-(3-chloro-4-fluoro-phenyl)imidazo [1,2-b]pyridazin-3-yl]phenyl] acetamide]", "IC50": 525}
